Here are results for 19 compounds from patent US20240262795A1, “PYRAZINE COMPOUNDS AS INHIBITORS OF FLT3” (Biomea Fusion, Inc., priority 2021, published 2024).

Each structure is given as a SMILES string.

One test deals with T1, FLT3-ITD (Homo sapiens, UniProt P36888, DUP595-601).
T1 construct: purchased Signalchem F-12-12CG-10
T1 sequence (P36888 with tags, fused parts or gaps DUP595-601 limits assumed): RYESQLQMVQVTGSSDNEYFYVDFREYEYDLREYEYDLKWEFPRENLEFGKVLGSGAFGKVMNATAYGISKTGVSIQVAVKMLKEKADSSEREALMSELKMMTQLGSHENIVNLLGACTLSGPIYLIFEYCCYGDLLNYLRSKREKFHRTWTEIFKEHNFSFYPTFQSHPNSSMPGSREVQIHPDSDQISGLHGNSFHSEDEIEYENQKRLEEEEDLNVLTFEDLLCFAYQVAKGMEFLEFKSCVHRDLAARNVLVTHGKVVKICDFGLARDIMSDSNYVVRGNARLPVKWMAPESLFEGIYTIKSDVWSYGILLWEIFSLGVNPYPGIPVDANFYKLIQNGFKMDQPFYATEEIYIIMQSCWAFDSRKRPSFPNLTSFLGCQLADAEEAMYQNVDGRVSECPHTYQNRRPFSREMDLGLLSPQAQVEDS
Briefly: FLT3-ITD Lance Ultra TR-FRET kinase assay. In kind it is biochemical. An outline of the steps: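 Lance Ultra TR-FRET with 50 nM ULight-JAK-1 (Tyr1023) peptide, Eu-anti-phosphotyrosine (PT66) detection, in HEPES pH 7.5 buffer at 23° C, 30 min enzyme/compound preincubation. WT: 0.5 nM enzyme, 100 μM ATP, 30 min; ITD: 0.0625 nM, 50 μM ATP, 60 min. IC50 by four-parameter fit of 11-point 3× dilutions.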
On the technique in general: TR-FRET usually uses a lanthanide donor and a delayed reading to cut background.

The subject of a further test is K-562. Briefly: Proliferation inhibition, CellTiter-Glo, K-562. It is filed as cell-based, human. The note with it: Homo sapiens, K562, 96 h; K-562 cells, IC50 (4 days), CellTiter-Glo; read-out: K-562 IC50. The method in brief: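 About 10,000 cells per well in RPMI-1640 with 10% FBS. Compounds added 2 h after seeding at eight concentrations in duplicate (0.2% DMSO as 100% proliferation), then incubated ~96 h at 37° C, 5% CO2. ATP measured by CellTiter-Glo luminescence; IC50 from four-parameter logistic fit.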
(In general: In ATP-based viability assays light output follows the ATP content of the culture.)

The term IC50 denotes the concentration that inhibits the measured activity by half. As for `CCc1nc(C(N)=O)c(Nc2cccc(CCNC(=O)[C@H](C)N(C)C(=O)/C=C/CN(C)C)c2)nc1N(C)C(C)C` [Compound 204, (S,E)-3-((3-(2-(2-(4-(dimethylamino)-N-methylbut-2-enamido)propanamido)ethyl)phenyl)amino)-6-ethyl-5-(isopropyl(methyl)amino)pyrazine-2-carboxamide], the half-inhibitory concentration (IC50) is 0.101 to 0.2 nM against FLT3-ITD and above 500 nM with K-562.

For `CCc1nc(C(N)=O)c(Nc2cccc(CCNC(=O)[C@H](C)N(C)C(=O)/C=C/CN(C)C)c2)nc1NC(C)C` [Compound 205, (S,E)-3-((3-(2-(2-(4-(dimethylamino)-N-methylbut-2-enamido)propanamido)ethyl)phenyl)amino)-6-ethyl-5-(isopropylamino)pyrazine-2-carboxamide], the half-maximal inhibitory concentration (IC50) at FLT3-ITD was 0.101 to 0.2 nM; with K-562, above 500 nM.

Take `CCc1nc(C(N)=O)c(Nc2cccc(CCNC(=O)CN(C)C(=O)/C=C/CN(C)C)c2)nc1C1CC1` [Compound 219, (E)-5-cyclopropyl-3-((3-(2-(2-(4-(dimethylamino)-N-methylbut-2-enamido)acetamido)ethyl)phenyl)amino)-6-ethylpyrazine-2-carboxamide]: the IC50 in the test with K-562 was above 500 nM. In the case of `Cc1nc(C(N)=O)c(Nc2cccc(CCNC(=O)[C@H](C)N(C)C(=O)/C=C/CN(C)C)c2)nc1N(C)C(C)C` [Compound 232, (S, E)-3-((3-(2-(2-(4-(dimethylamino)-N-methylbut-2-enamido)propanamido)ethyl)phenyl)amino)-5-(isopropyl (methyl)amino)-6-methylpyrazine-2-carboxamide], the IC50 on FLT3-ITD is 0.501 to 1 nM; in the test with K-562, above 500 nM.

Take `Cc1nc(C(N)=O)c(Nc2cccc(CCNC(=O)CN(C)C(=O)/C=C/CN(C)C)c2)nc1N(C)C(C)C` [Compound 250, (E)-3-((3-(2-(2-(4-(dimethylamino)-N-methylbut-2-enamido)acetamido)ethyl)phenyl)amino)-5-(isopropyl(methyl)amino)-6-methylpyrazine-2-carboxamide]: the IC50 was 0.201 to 0.5 nM on FLT3-ITD and above 500 nM in the test with K-562.

In the case of `CCc1nc(C(N)=O)c(Nc2cccc(CCNC(=O)CN(C)C(=O)/C=C/CN(C)C)c2)nc1N(C)CC` [Compound 252, (E)-3-((3-(2-(2-(4-(dimethylamino)-N-methylbut-2-enamido)acetamido)ethyl)phenyl)amino)-6-ethyl-5-(ethyl (methyl)amino) pyrazine-2-carboxamide], the half-inhibitory concentration (IC50) against FLT3-ITD is 0.101 to 0.2 nM; in the test on K-562, above 500 nM.

For the compound `CCc1nc(C(N)=O)c(Nc2cccc(CCNC(=O)[C@H](C)N(C)C(=O)/C=C/CNC)c2)nc1N(C)C(C)C` [Compound 307, (S,E)-6-ethyl-5-(isopropyl(methyl)amino)-3-((3-(2-(2-(N-methyl-4-(methylamino)but-2-enamido)propanamido)ethyl)phenyl)amino)pyrazine-2-carboxamide], at FLT3-ITD, the IC50 fell in the range of 0.201 to 0.5 nM. As for `CCc1nc(C(N)=O)c(Nc2ccnc(CCNC(=O)[C@H](C)N(C)C(=O)/C=C/CN(C)C)c2)nc1C1CC1` [Compound 310, (S,E)-5-cyclopropyl-3-((2-(2-(2-(4-(dimethylamino)-N-methylbut-2-enamido)propanamido)ethyl)pyridin-4-yl)amino)-6-ethylpyrazine-2-carboxamide], the values for the concentration for half-maximal inhibition (IC50) against FLT3-ITD and in the test with K-562 were 0.501 to 1 nM and above 500 nM, respectively.

For `CCc1nc(C(N)=O)c(Nc2cccc([C@@H](C)CNC(=O)CN(C)C(=O)/C=C/CN(C)C)c2)nc1C1CC1` [Compound 504, (R,E)-5-cyclopropyl-3-((3-(1-(2-(4-(dimethylamino)-N-methylbut-2-enamido)acetamido)propan-2-yl)phenyl)amino)-6-ethylpyrazine-2-carboxamide], the half-maximal inhibitory concentration (IC50) with K-562 was above 500 nM. For `CCc1nc(C(N)=O)c(Nc2cccc([C@@H](C)CNC(=O)CN(C)C(=O)/C=C/CN3CCC3)c2)nc1C1CC1` [Compound 506, (R,E)-3-((3-(1-(2-(4-(azetidin-1-yl)-N-methylbut-2-enamido)acetamido)propan-2-yl)phenyl)amino)-5-cyclopropyl-6-ethylpyrazine-2-carboxamide], the values for the half-maximal inhibitory concentration (IC50) at FLT3-ITD and with K-562 were 0.201 to 0.5 nM and above 500 nM, respectively. Consider `CCCc1nc(Nc2cccc([C@@H](C)CNC(=O)CN(C)C(=O)/C=C/CN3CCC3)c2)c(C(N)=O)nc1CC` [Compound 507, (R,E)-3-((3-(1-(2-(4-(azetidin-1-yl)-N-methylbut-2-enamido)acetamido)propan-2-yl)phenyl)amino)-6-ethyl-5-propylpyrazine-2-carboxamide], for which the IC50 is 0.201 to 0.5 nM on FLT3-ITD and above 500 nM with K-562. Take `CCc1nc(Nc2cccc([C@@H](C)CNC(=O)CN(C)C(=O)/C=C/CN3CCC3)c2)c(C(N)=O)nc1CC` [Compound 508, (R, E)-3-((3-(1-(2-(4-(azetidin-1-yl)-N-methylbut-2-enamido)acetamido)propan-2-yl)phenyl)amino)-5,6-diethylpyrazine-2-carboxamide]: the values for the IC50 against FLT3-ITD and in the test with K-562 were 0.501 to 1 nM and above 500 nM, respectively.

Consider `CCc1nc(C(N)=O)c(Nc2cc(F)cc(CCNC(=O)CN(C)C(=O)/C=C/CN3CCC3)c2)nc1C1CC1` [Compound 516, (E)-3-((3-(2-(2-(4-(azetidin-1-yl)-N-methylbut-2-enamido)acetamido)ethyl)-5-fluorophenyl)amino)-5-cyclopropyl-6-ethylpyrazine-2-carboxamide], for which the 50% inhibitory concentration (IC50) on FLT3-ITD is 0.101 to 0.2 nM; with K-562, above 500 nM. `CCc1nc(C(N)=O)c(Nc2cccc(CCNC(=O)CN(C)C(=O)/C=C/CN3CCC3)c2)nc1N(C)CC` [Compound 516A, (E)-3-((3-(2-(2-(4-(azetidin-1-yl)-N-methylbut-2-enamido)acetamido)ethyl)phenyl)amino)-6-ethyl-5-(ethyl(methyl)amino) pyrazine-2-carboxamide]: the IC50 on FLT3-ITD is 0.101 to 0.2 nM; in the test on K-562, above 500 nM. As to `CCc1nc(C(N)=O)c(Nc2cccc([C@@H](C)CNC(=O)CN(C)C(=O)/C=C/CN3CCC3)c2)nc1N(C)CC` [Compound 518, (R,E)-3-((3-(1-(2-(4-(azetidin-1-yl)-N-methylbut-2-enamido)acetamido)propan-2-yl)phenyl)amino)-6-ethyl-5-(ethyl(methyl)amino)pyrazine-2-carboxamide], the concentration for half-maximal inhibition (IC50) against FLT3-ITD is 0.101 to 0.2 nM; in the test with K-562, above 500 nM. As for `CCOc1nc(Nc2cccc(CCNC(=O)CN(C)C(=O)/C=C/CN3CCC3)c2)c(C(N)=O)nc1CC` [Compound 602, (E)-3-((3-(2-(2-(4-(azetidin-1-yl)-N-methylbut-2-enamido)acetamido)ethyl)phenyl)amino)-5-ethoxy-6-ethylpyrazine-2-carboxamide], the IC50 was 0.201 to 0.5 nM at FLT3-ITD and above 500 nM in the test on K-562. In the case of `CCc1nc(C(N)=O)c(Nc2cccc(CCNC(=O)CN(C)C(=O)/C=C/CN3CCC3)c2)nc1OC(C)C` [Compound 603, (E)-3-((3-(2-(2-(4-(azetidin-1-yl)-N-methylbut-2-enamido)acetamido)ethyl)phenyl)amino)-6-ethyl-5-isopropoxypyrazine-2-carboxamide], the values for the IC50 at FLT3-ITD and in the test with K-562 were 0.201 to 0.5 nM and above 500 nM, respectively.

As for `CCc1nc(C(N)=O)c(Nc2ccnc(CCNC(=O)[C@H](C)N(C)C(=O)/C=C/CN(C)C)c2)nc1N(C)C(C)C` [Compound 605, (S, E)-3-((2-(2-(2-(4-(dimethylamino)-N-methylbut-2-enamido)propanamido)ethyl)pyridin-4-yl)amino)-6-ethyl-5-(isopropyl (methyl)amino) pyrazine-2-carboxamide], the IC50 against FLT3-ITD is 0.201 to 0.5 nM; with K-562, above 500 nM. As for `CCc1nc(C(N)=O)c(Nc2ccc(N3CCC(N4CCN(C)CC4)CC3)c(OC)c2)nc1NC1CCOCC1` [Gilteritinib, gilteritinib, reference compound], the IC50 with K-562 is 100 to 500 nM.
